Data taken from patent US12570608B2, “Compound derived from quinoline, use of a compound, composition and method for the treatment or prophylaxis of a condition caused by a blood parasite” (FUNDÃÇAO OSWALDO CRUZ, priority 2019, dated 2026).
“And” between values parts separate entries of the source, which are not always exact repeats. Identical values can stand only once. Like-named read-outs stand apart in the source and are kept apart here.

What was measured:
P. falciparum 3D7 = test: Antiplasmodial SYBR Green assay, CQ-sensitive strain; type: cell-based, Plasmodium falciparum; conditions: for IC50: Plasmodium falciparum; for Selectivity index 3D7: ratio between MDL50 and IC50, 3D7
Procedure: Each test was performed in triplicate in at least two different experiments.
(§1) Briefly, plates were centrifuged at 700 g for 5 min in room temperature to remove medium, washed with PBS, and incubated for 30 min with lysis buffer solution and SYBR Green I DNA dye (1:20000). The fluorescence of the uninfected erythrocytes was considered as background.
(§2) The half maximum inhibitory concentration of the drug (IC50) was estimated by curve fitting using software and compared with the parasite growth in the compound-free medium.

P. falciparum K1 [1] = test: Antiplasmodial SYBR Green assay, multiresistant strain; type: cell-based, Plasmodium falciparum; conditions: for Antiplasmodial activity: K1 resistant strain, highest dose 10 μM; for IC50: Plasmodium falciparum; for Selectivity index K1: ratio between MDL50 and IC50, K1
Procedure: Freshly synchronized sorbitol ring stages (Lambros and Vanderberg, 1979) were immediately incubated with the test compounds at various concentrations (10-0.152 μM or 1.0-0.0152 μM) previously solubilized in 0.05% dimethyl sulfoxide (DMSO) (v/v). Each test was performed in triplicate in at least two different experiments.
The antiplasmodial activity of the compounds was measured by DNA labeling assay using the fluorescent probe SYBR Green (Smilkstein et al., 2004).
as §1, with “background. Fluorescence was measured in a fluorimeter at 485/535 nm.” for “background.”
as §2

β-hematin formation = test: Inhibition of β-hematin formation (lipid-catalysed heme crystallization); type: biochemical
Procedure: Briefly, drug stock solutions were prepared in DMSO, used at a final concentration of up to 30 mM A heme stock (10 mM) was made in DMSO and diluted to […] with 100 mM sodium acetate (pH 4.8).
The plates were incubated at 37° C. for 2 h to allow crystallization, followed by the addition of 100 μL of 200 mM sodium bicarbonate (pH 9.1) to solubilize any remaining monomeric heme. After incubation for 30 min at room temperature, the amount of solubilized monomeric heme was determined by measuring the absorbance at 405 nm.
Finally, 20 μL of 1 M sodium hydroxide was added to the plates to dissolve the crystals formed. The absorbance was read at 405 nm to determine the total amount of heme present in each well.
The inhibition of heme crystallization was determined as a function of the amount of monomeric heme that was not crystallized divided by the total amount of heme present in the test mixture. The results are expressed as IC50 values based on the percentage inhibition of β-hematin formation by compounds GIQ, CEQ, PCQ and DAQ. Each test was performed in triplicate in at least two different experiments.

BGM-VN = test: Cytotoxicity, MTT assay; type: cell-based; conditions: 24 h incubation
Procedure: The compounds (20 μL) at various concentrations (400-1.0 μM) were placed in the 96-well plates, incubated with the cultured cells for 24 h under a 5%CO2 atmosphere at 37° C., and then a 3-(4,5-dimethylthiazol-2-yl)-2,5-diphenyltetrazolium bromide (MTT) solution ([…]; 20 μL/well for 3 h) was used to assess mitochondrial viability.
The supernatants were carefully removed and 100 μL of DMSO was added to each well and mixed to solubilize the formazan crystals. The optical density was determined at 570 nm. Cell viability was expressed as the percentage of the control absorbance in the untreated cells after subtracting the appropriate background. Each test was performed in triplicate in at least two different experiments.

CQ-resistant strains = conditions: prior art; cited from earlier work
P. berghei NK65 = test: P. berghei suppression test in mice; type: in vivo; conditions: for Survival of mice compared to the untreated control: Mann-Whitney test; for Parasitemia % reduction day 5 / Parasitemia % reduction day 7 / Parasitemia % reduction day 9 / Parasitemia % reduction day 11 / Parasitemia % reduction day 13 / Parasitemia % reduction day 15: three days, relative to untreated mice
Procedure: A P. berghei NK65 strain was obtained as a donation from New York University and maintained through weekly blood draws.
On days 5 to 15 after parasite inoculation, blood was taken from the tail of each mouse and used to prepare thin smears that were fixed with methanol, stained with Giemsa and examined microscopically (1000×) to determine parasitemia.
Parasite growth inhibition was determined relative to parasitemia in the untreated mice, considered to be 100% parasite growth. […] The experiments were performed twice.

P. falciparum K1 [2] = test: Time course of inhibitory activity, microscopy of synchronized parasites; type: cell-based, Plasmodium falciparum; conditions: 10 times IC50 of 3D7 applied to K1; 0, 12, 24, 36 h
Procedure: The time course of inhibitory activity of the CQ analogues was also evaluated. The compounds were incubated at a concentration 10 times higher than the IC50 values obtained for the P. falciparum 3D7 sensitive strain with synchronized parasites. Morphological changes were then observed by microscopy after 0, 12, 24 and 36 hours after synchronization (FIG. 3). Parasites sensitive (3D7 strain) and resistant (K1 strain) to CQ were tested in parallel, and the antimalarial CQ was used as a control.

Indochina I = conditions: resistant strain Indochina I; verapamil; cited from earlier work
[3] = CQ-sensitive strain 3D7, SYBR Green, ± SD, read-out: IC50 (nM ± SD) P.falciparum 3D7
[4] = multiresistant strain K1, SYBR Green, ± SD, read-out: IC50 (nM ± SD) P.falciparum K1
[5] = 3D7, read-out: IC50 (nM ± SD) P.falciparum 3D7
[6] = 50 mg/kg orally, daily for three days
[7] = K1, read-out: IC50 (nM ± SD) P.falciparum K1
[8] = CQ 20 mg/kg, daily for three days

SMILES | Selectivity index 3D7 (P. falciparum 3D7) | Selectivity index K1 (P. falciparum K1 [1]) | MLD50 (μM) BGM-VN (BGM-VN) [µM] | IC50 (P. falciparum 3D7; [5]) [nM] | Survival (P. berghei NK65; [6]) | Survival of mice compared to the untreated control (P. berghei NK65; 50 mg/kg orally) | Parasitemia day 5 (P. berghei NK65; [6]) | Parasitemia day 7 (P. berghei NK65; [6]) | Parasitemia % reduction day 7 (P. berghei NK65; 50 mg/kg orally) [%] | Parasitemia day 9 (P. berghei NK65; [6]) | Parasitemia % reduction day 9 (P. berghei NK65; 50 mg/kg orally) [%] | Parasitemia day 11 (P. berghei NK65; [6]) | Parasitemia % reduction day 11 (P. berghei NK65; 50 mg/kg orally) [%] | Parasitemia day 13 (P. berghei NK65; [6]) | Parasitemia % reduction day 13 (P. berghei NK65; 50 mg/kg orally) [%] | Parasitemia day 15 (P. berghei NK65; [6]) | Parasitemia % reduction day 15 (P. berghei NK65; 50 mg/kg orally) [%] | IC50 (P. falciparum K1 [1]; [7]) [nM] | further results
O=C(O)CNc1ccnc2cc(Cl)ccc12 [GIQ] | Inactive | Inactive | >1000 |  |  |  |  |  |  |  |  |  |  |  |  |  |  |  | Antiplasmodial activity (P. falciparum 3D7; 3D7, highest dose 10 μM): inactive; IC50 (P. falciparum 3D7; [3]): > 10000 nM; Antiplasmodial activity (P. falciparum K1 [1]): inactive; IC50 (P. falciparum K1 [1]; [4]): > 10000 nM; β-hematin inhibition, comparison (β-hematin formation): least potent
CCN(CC)CCCNc1ccnc2cc(Cl)ccc12 [AQ-13] |  |  |  |  |  |  |  |  |  |  |  |  |  |  |  |  |  |  | Activity against CQ-resistant strains (literature, words) (CQ-resistant strains): shows antimalarial activity
CCN(CC)CC#CCNc1ccnc2cc(Cl)ccc12 [DAQ] | 32195 | 29620 | 1481 ± 39 | 46 ± 4 | 28 ± 1 | significantly higher | 0.00 | 0.00 | 100 | 0.00 | 100 | 0.00 | 100 | 0.77 | 92 | 3.67 | 82 | 50 ± 3 | Selectivity index (SI) quoted in text (P. falciparum 3D7; strain not stated): 55.750; Parasitemia % reduction day 5 (P. berghei NK65; 50 mg/kg orally): 100%; Antiplasmodial activity (P. falciparum K1 [1]): active; β-hematin inhibition, comparison (β-hematin formation): lower than that of CQ
NCCNc1ccnc2cc(Cl)ccc12 [CEQ] | 655 |  | 179 ± 40 |  | 26 ± 6 | significantly higher | 0.00 | 0.00 | 100 | 0.00 | 100 | 0.00 | 100 | 0.57 | 94 | 4 | 80 |  | IC50 (P. falciparum 3D7; [3]): 273 ± 12 nM; Parasitemia % reduction day 5 (P. berghei NK65; 50 mg/kg orally): 100%; IC50 (P. falciparum K1 [1]; [4]): 218 ± 44 nM
C#CCNc1ccnc2cc(Cl)ccc12 [PCQ] | 1079 | 1005 | 407 ± 185 | 377 ± 14 | 17 ± 8 | not increased | 1.04 | 4.83 | 10 | 5.75 | 8 | 7.5 | 32 | 7.0 | 32 | 34.5 | 0 | 405 ± 32 | Parasitemia % reduction day 5 (P. berghei NK65; 50 mg/kg orally, 50 mg/kg): 70% and 73%
CCN(CC)Cc1cc(Nc2ccnc3cc(Cl)ccc23)ccc1O [AQ] |  |  |  |  |  |  |  |  |  |  |  |  |  |  |  |  |  |  | Activity against CQ-resistant strains (literature, words) (CQ-resistant strains): cross-resistance with CQ
CCN(CC)CCCC(C)Nc1ccnc2cc(Cl)ccc12 (stereo not shown) [CQ, chloroquine, reference compound] |  |  |  | 36 ± 12 |  |  |  |  |  |  |  |  |  |  |  |  |  | 177 ± 20 | Parasitemia until the last day of evaluation (P. berghei NK65; CQ 20 mg/kg): did not show parasitemia; Survival (P. berghei NK65; CQ 20 mg/kg): survived until the last day of the experiment; Survival (P. berghei NK65; [8]): >30; Parasitemia day 5 (P. berghei NK65; [8]): 0.00; Parasitemia % reduction day 5 (P. berghei NK65; CQ 20 mg/kg): 100%; Parasitemia day 7 (P. berghei NK65; [8]): 0.00; Parasitemia % reduction day 7 (P. berghei NK65; CQ 20 mg/kg): 100%; Parasitemia day 9 (P. berghei NK65; [8]): 0.00; Parasitemia % reduction day 9 (P. berghei NK65; CQ 20 mg/kg): 100%; Parasitemia day 11 (P. berghei NK65; [8]): 0.00; Parasitemia % reduction day 11 (P. berghei NK65; CQ 20 mg/kg): 100%; Parasitemia day 13 (P. berghei NK65; [8]): 0.00; Parasitemia % reduction day 13 (P. berghei NK65; CQ 20 mg/kg): 100%; Parasitemia day 15 (P. berghei NK65; [8]): 0.00; Parasitemia % reduction day 15 (P. berghei NK65; CQ 20 mg/kg): 100%; Time course / stage of action, morphology (P. falciparum K1 [2]): did not block complete parasite development; Improvement of IC50 after PfCRT inhibition (Indochina I): 10 ×
